The target of the test is T1, LIN28B protein (Homo sapiens, UniProt Q6ZN17).
T1 construct: in a panel of endogenously LIN28 expressing cancer cell models; endogenous in cells; host or cells: YP-MEL, BT-12, BT-37, NT-2 (NTERA)
T1 sequence (Q6ZN17 1-250): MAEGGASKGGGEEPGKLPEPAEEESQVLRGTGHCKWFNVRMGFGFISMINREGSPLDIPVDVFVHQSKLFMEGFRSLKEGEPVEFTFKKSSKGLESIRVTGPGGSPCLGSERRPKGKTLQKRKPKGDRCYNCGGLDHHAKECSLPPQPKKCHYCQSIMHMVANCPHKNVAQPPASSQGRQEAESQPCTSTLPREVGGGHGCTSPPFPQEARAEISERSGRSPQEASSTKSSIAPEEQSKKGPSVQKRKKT
The experiment in a line: Western blotting of Lin28B protein in cancer cell models. The following applies: YP-MEL, BT-37, NT-2 cells; at the tested dosages. The test is classed as cell-based. On the procedure:
FIG. 5: Compound of formula (I) mixture, containing the two isomers (P1+P2) causes significant reduction in Lin28A protein from 5 μM onwards, in a panel of endogenously LIN28 expressing cancer cell models. […] LIN28A and LIN28B expression profile in pediatric CNS cancer cell lines, 96-hr post-treatment with Compound of formula (I). SDS-PAGE on 10% polyacrylamide gel of total cell lysates from untreated cells harvested at 80-90% confluency. Samples loaded with volumes for 20 μg protein. LIN28A and LIN28B proteins were detected using the anti-LIN28A antibody (#8706; Cell Signaling Technology) and anti-LIN28B antibody (#11965; Cell Signalling Technology) at 1:2000 dilutions. T47D: adult breast cancer (LIN28A expressing); YPMEL: malignant melanoma derived from Neurocutaneous Melanosis (NCM) (Lin28A and Lin28B expressing); BT-12: pediatric atypical-teratoid rhabdoid tumor (AT/RT). […]
The proteins were extracted from the same samples as the RNA using the RIPA lysis buffer. […] The proteins were detected using the anti-Lin28A antibody (#8706; Cell Signaling Technology), anti-Lin28B antibody (#11965, Cell Signaling Technology) the anti-beta-actin antibody at respectively 1:2000, 1:2000 and 1:5000 dilutions.
A general note: Immunoblotting shows a protein as a band on a membrane.

As to `CC[C@H](C)[C@H](NC(=O)[C@H](Cc1ncc[nH]1)NC(=O)c1cccc(C(N)=O)c1)C(=O)Nc1ccc(O)c(-c2nc3ccccc3s2)c1` [Compound P1], the Lin28B expression entry is “remained unaltered”.

These data come from patent US20230391824A1, “RATIONALE, DESIGN, SYNTHESIS AND VALIDATION OF A SMALL MOLECULE ANTICANCER AGENT” (priority 2021, published 2023).
